Reference: the NIST ThermoML archive (doi:10.1021/je060271a)

Settings: 303.15 K, Liquid, Vibrating tube method

CCCCC(=O)OCC(COC(=O)CCCC)(COC(=O)CCCC)COC(=O)CCCC [pentaerythritol tetrapentanoate]
Settings	mass density [kg/m3]
751.89 kPa	1011.3
752.93 kPa	1011.3
753.46 kPa	1011.4
754.85 kPa	1011.5
756.07 kPa	1011.3
757.1 kPa	1011.2
758.15 kPa	1011.2
759.55 kPa	1011.4
760.59 kPa	1011.3
761.46 kPa	1011.3
762.5 kPa	1011.4
763.72 kPa	1011.3
764.76 kPa	1011.3
765.97 kPa	1011.4
767.19 kPa	1011.3
768.22 kPa	1011.4
769.27 kPa	1011.3
770.14 kPa	1011.4
771.18 kPa	1011.4
772.57 kPa	1011.4
773.96 kPa	1011.4
775 kPa	1011.3
776.04 kPa	1011.3
777.44 kPa	1011.4
778.31 kPa	1011.3
779.51 kPa	1011.4
781.59 kPa	1011.4
782.99 kPa	1011.3
784.03 kPa	1011.3
785.06 kPa	1011.2
786.46 kPa	1011.3
787.68 kPa	1011.4
788.72 kPa	1011.4
790.1 kPa	1011.3
793.58 kPa	1011.4
796.19 kPa	1011.4
797.22 kPa	1011.4
798.28 kPa	1011.4
799.66 kPa	1011.4
800.87 kPa	1011.4
802.26 kPa	1011.3
803.13 kPa	1011.3
804.36 kPa	1011.3
806.1 kPa	1011.3
807.3 kPa	1011.2
808.17 kPa	1011.4
809.57 kPa	1011.4
810.78 kPa	1011.4
811.81 kPa	1011.4
813.39 kPa	1011.4
814.44 kPa	1011.4
815.81 kPa	1011.4
816.86 kPa	1011.3
818.08 kPa	1011.4
819.64 kPa	1011.3
820.86 kPa	1011.4
822.25 kPa	1011.3
823.47 kPa	1011.4
824.68 kPa	1011.4
826.25 kPa	1011.3
827.28 kPa	1011.4
828.32 kPa	1011.4
830.07 kPa	1011.4
831.46 kPa	1011.3
832.68 kPa	1011.3
834.23 kPa	1011.4
835.46 kPa	1011.3
836.32 kPa	1011.3
837.71 kPa	1011.3
839.27 kPa	1011.4
840.67 kPa	1011.4
841.53 kPa	1011.4
843.1 kPa	1011.5
844.31 kPa	1011.4
846.05 kPa	1011.4
847.44 kPa	1011.4
848.82 kPa	1011.4
850.22 kPa	1011.5
851.43 kPa	1011.4
852.99 kPa	1011.3
854.55 kPa	1011.4
855.43 kPa	1011.3
856.64 kPa	1011.4
858.56 kPa	1011.4
859.94 kPa	1011.3
861.33 kPa	1011.4
862.89 kPa	1011.4
864.28 kPa	1011.4
865.5 kPa	1011.5
866.89 kPa	1011.3
868.64 kPa	1011.3
869.85 kPa	1011.3
871.4 kPa	1011.4
872.8 kPa	1011.3
874.36 kPa	1011.4
875.58 kPa	1011.4
877.31 kPa	1011.4
878.7 kPa	1011.3
880.09 kPa	1011.4
881.48 kPa	1011.3
882.37 kPa	1011.5
884.28 kPa	1011.4
885.67 kPa	1011.4
886.88 kPa	1011.4
888.45 kPa	1011.5
890 kPa	1011.4
891.23 kPa	1011.4
892.79 kPa	1011.4
894.35 kPa	1011.5
895.75 kPa	1011.3
897.31 kPa	1011.5
899.39 kPa	1011.5
900.97 kPa	1011.4
902.17 kPa	1011.4
903.4 kPa	1011.4
904.79 kPa	1011.4
906.87 kPa	1011.4
908.62 kPa	1011.4
910 kPa	1011.4
911.39 kPa	1011.4
913.13 kPa	1011.4
914.69 kPa	1011.5
916.25 kPa	1011.5
917.82 kPa	1011.4
919.55 kPa	1011.4
921.29 kPa	1011.4
922.68 kPa	1011.4
924.26 kPa	1011.5
925.81 kPa	1011.4
927.54 kPa	1011.6
929.11 kPa	1011.4
931.03 kPa	1011.4
932.76 kPa	1011.6
934.31 kPa	1011.4
936.05 kPa	1011.5
937.62 kPa	1011.4
939.53 kPa	1011.5
941.27 kPa	1011.5
943 kPa	1011.4
944.4 kPa	1011.5
946.13 kPa	1011.4
947.18 kPa	1011.5
949.26 kPa	1011.4
950.82 kPa	1011.4
952.73 kPa	1011.5
954.48 kPa	1011.5
956.38 kPa	1011.4
958.11 kPa	1011.4
960.21 kPa	1011.4
961.77 kPa	1011.5
963.32 kPa	1011.5
965.24 kPa	1011.4
967.49 kPa	1011.5
969.05 kPa	1011.5
970.44 kPa	1011.4
972.01 kPa	1011.5
974.27 kPa	1011.4
976.34 kPa	1011.4
977.92 kPa	1011.4
979.13 kPa	1011.6
